Measurements reported in patent US12398111B2, “Triazine compounds and pharmaceutical use thereof” (Japan Tobacco Inc., priority 2014, dated 2025).

Molecular target: T1, human mPGES-1 (Homo sapiens, UniProt O14684)
T1 construct: made in house; host or cells: FreeStyle CHO-S cells (Chinese hamster ovary), transient transfection with pcDNA3.1(+)/human mPGES-1; microsome fraction used
T1 sequence (O14684 1-152): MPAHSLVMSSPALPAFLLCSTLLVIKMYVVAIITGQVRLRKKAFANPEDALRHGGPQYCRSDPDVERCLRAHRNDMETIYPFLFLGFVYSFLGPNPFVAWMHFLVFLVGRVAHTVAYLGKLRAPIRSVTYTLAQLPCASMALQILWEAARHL
Experiment: Evaluation of human mPGES-1 enzyme inhibitory activity (PGE2 measured by HTRF, microsome fraction of CHO-S cells expressing human mPGES-1)
Assay type: biochemical
Settings: IC50 value; microsome fraction of CHO-S cells expressing human mPGES-1, PGE2 by HTRF
Experimental: That is, the amount of PGE2 produced by human mPGES-1 in the presence of a test article was measured by the HTRF (homogeneous time resolved fluorescence) method, based on which the human mPGES-1 enzyme inhibitory activity of the test article was determined.
1) Preparation of Human mPGES-1 Expressing Cell Microsome Fraction
A DNA fragment containing human mPGES-1, which is added with a BamHI recognition cleavage sequence immediately before the translation initiation codon and an EcoRI recognition cleavage sequence immediately after the translation termination codon was amplified by the PCR (Polymerase Chain Reaction) method using a human mPGES-1 expression plasmid DNA (pME-18S/iPGES-1) prepared in-house as a template. The purified DNA fragment was digested with BamHI and EcoRI, and ligated to pcDNA3.1(+) (Invitrogen, model number V790-20), similarly digested with BamHI and EcoRI, by using a DNA Ligation kit ver.2.1 (Takara Bio, model number 6022). The human mPGES-1 expression plasmid DNA was isolated from Escherichia coli DH5a (TOYOBO, model number DNA-903) transformed with the obtained ligation product. The base sequence of human mPGES-1 cloned to a vector was determined by the Dye Terminator method by using BigDye Terminator v3.1 Cycle Sequencing Kit (Applied Biosystems, #4337455).
Human mPGES-1 expression plasmid DNA was transfected into Chinese hamster ovary-derived cells (FreeStyle CHO-S Cell, Invitrogen, #R800-07) by using a transgene reagent (FreeStyle MAX Reagent (Invitrogen, #16447-100)), and cultured with shaking (8% CO2, 37° C.) in a medium containing 8 mmol/L L-glutamine (GIBCO FreeStyle CHO Expression Medium, Invitrogen, #12651-022) for 48 hr.
The CHO-S cells were suspended in Homogenate Buffer (100 mmol/L potassium phosphate (pH 7.4), 250 mmol/L Sucrose, 100 mmol/L EDTA, complete EDTA free (Roche, #1873580)). Using an ultrasonic disruptor UD-201 (Tomy Seiko), the suspended cells were disrupted at output:3, duty cycle:50 for 30 seconds. The precipitate was removed by centrifugation (1,000×g, 5 min, 4° C.), is and the supernatant was centrifuged (5,000×g, 10 min, 4° C.). The supernatant was further centrifuged (105,000×g, 60 min, 4° C.). The obtained precipitate was suspended in Resuspension Buffer (100 mmol/L potassium phosphate (pH 7.4), 250 mmol/L sucrose, 100 mmol/L EDTA, 10% glycerol) to give a microsome fraction.
The protein concentration of the microsome fraction was measured by the Bradford method (Protein Assay Kit, Bio-Rad). The microsome fraction was rapidly frozen in liquid nitrogen and preserved at −80° C. Human mPGES-1 in the microsome fraction was detected by Western Blot using rabbit anti-mPGES-1 polyclonal antibody (ThermoFisher Scientific, #PA1-10264).
2) Evaluation of Human mPGES-1 Enzyme Inhibitory Activity
A test article solution diluted with 0.1 mol/L potassium phosphate, pH 7.4 (hereinafter to be referred to as KPB) or DMSO (Nacalai Tesque, #13407-45) was added at 5 μL/well to 96 well V-bottom plate (Corning, #3363). The final DMSO concentration during the reaction was set to 2% (v/v). Furthermore, a microsome fraction of CHO-S cells expressing human mPGES-1, which was diluted with reduced GSH (12.5 mmol/L KPB solution, SIGMA, #G6529-25G) such that the protein concentration was 5 μg/mL, was added at 20 μL/well. The amount of the microsome fraction used is the amount of microsome fraction within a range where the amount of PGE2 produced under the reaction conditions shown below and the amount of microsome fraction used show linearity. To the blank was added reduced GSH (12.5 mmol/L KPB solution) at 20 μL/well.

Compound | IC50
CC(C)c1ccc(-c2nc(O)nc(-c3cc(CNC(=O)C(C)(C)C)ccc3Cl)n2)cc1 [Example 1-46] | 0.7 nM
Cc1ccc(CNC(=O)C(C)(C)C)cc1-c1nc(O)nc(-c2ccc(C(F)(F)F)cc2)n1 [Example 1-48] | 0.9 nM
CCCc1cccc(-c2nc(O)nc(-c3cc(CNC(=O)C(C)(C)C)ccc3Cl)n2)c1 [Example 1-50] | 0.9 nM
CC1(C(=O)NCc2ccc(Cl)c(-c3nc(O)nc(-c4ccccc4)n3)c2)CCCCC1 [Example 1-52] | 0.6 nM
COC(C)(C)C(=O)NCc1ccc(Cl)c(-c2nc(O)nc(-c3ccccc3)n2)c1 [Example 1-53] | 4.5 nM
CC(C)(C)C(=O)NCc1ccc(Cl)c(-c2nc(O)nc(-c3cccc(C(F)(F)F)c3)n2)c1 [Example 1-54] | 0.9 nM
CCc1cccc(-c2nc(O)nc(-c3cc(CNC(=O)C(C)(C)C)ccc3Cl)n2)c1 [Example 1-55] | 1.1 nM
CC(C)(C)C(=O)NCc1ccc(Cl)c(-c2nc(O)nc(-c3cccc(C(C)(C)C)c3)n2)c1 [Example 1-57] | 0.5 nM
CCC(C)(C)C(=O)NCc1ccc(Cl)c(-c2nc(O)nc(-c3cccc(C(F)(F)F)c3)n2)c1 [Example 1-58] | 0.5 nM
CC(C)(C(=O)NCc1ccc(Cl)c(-c2nc(O)nc(-c3cccc(C(F)(F)F)c3)n2)c1)C(F)(F)F [Example 1-59] | 0.6 nM
CC(C)(C)C(=O)NCc1ccc(Cl)c(-c2nc(O)nc(-c3ccc(OC(F)(F)F)cc3)n2)c1 [Example 1-60] | 0.4 nM
CC(C)(C)C(=O)NCc1ccc(Cl)c(-c2nc(O)nc(-c3cccc(OC(F)(F)F)c3)n2)c1 [Example 1-61] | 0.7 nM
O=C(NCc1ccc(Cl)c(-c2nc(O)nc(-c3ccccc3)n2)c1)C12CC3CC(CC(C3)C1)C2 [Example 1-65] | 8.6 nM
O=C(NCc1ccc(Cl)c(-c2nc(O)nc(-c3ccccc3)n2)c1)C1(C(F)(F)F)CCCC1 [Example 1-68] | 0.3 nM
CC(C)(C(=O)NCc1ccc(Cl)c(-c2nc(O)nc(-c3ccccc3)n2)c1)C(F)(F)F [Example 1-69] | 0.3 nM
O=C(NCc1ccc(Cl)c(-c2nc(O)nc(-c3ccccc3)n2)c1)C1(C(F)(F)F)CCC1 [Example 1-70] | 0.7 nM
O=C(NCc1ccc(Cl)c(-c2nc(O)nc(-c3ccccc3)n2)c1)C1CCCCC1 [Example 1-71] | 2.5 nM
CC1(C(=O)NCc2ccc(Cl)c(-c3nc(O)nc(-c4ccccc4)n3)c2)CCC1 [Example 1-72] | 1.3 nM
CC1(C(=O)NCc2ccc(Cl)c(-c3nc(O)nc(-c4ccccc4)n3)c2)CCCC1 [Example 1-73] | 0.6 nM
CC(C)(C)C(=O)NCc1ccc(Cl)c(-c2nc(O)nc(-c3cccc(F)c3)n2)c1 [Example 1-76] | 1.7 nM
O=C(NCc1ccc(Cl)c(-c2nc(O)nc(-c3cccc(C(F)(F)F)c3)n2)c1)C1(C(F)(F)F)CCCC1 [Example 1-79] | 1.2 nM
COC(C)(C)C(=O)NCc1ccc(Cl)c(-c2nc(O)nc(-c3cccc(C(C)(C)C)c3)n2)c1 [Example 1-84] | 0.6 nM
CCOc1cccc(-c2nc(O)nc(-c3cc(CNC(=O)C4(C(F)(F)F)CCCC4)ccc3Cl)n2)c1 [Example 1-85] | 0.5 nM
CC(C)(C)COc1ccc(-c2nc(O)nc(-c3cc(CNC(=O)C(C)(C)C(F)(F)F)ccc3Cl)n2)cc1 [Example 1-86, N-(4-chloro-3-{4-[4-(2,2-dimethylpropoxy)phenyl]-6-hydroxy-1,3,5-triazin-2-yl}benzyl)-3,3,3-trifluoro-2,2-dimethylpropionamide] | 5.8 nM
CC(C)COc1cccc(-c2nc(O)nc(-c3cc(CNC(=O)C(C)(C)C(F)(F)F)ccc3Cl)n2)c1 [Example 1-88] | 1.2 nM
Cc1cc(-c2nc(O)nc(-c3cc(CNC(=O)C(C)(C)C(F)(F)F)ccc3Cl)n2)ccc1F [Example 1-90] | 0.4 nM
CC(C)(C)c1cccc(-c2nc(O)nc(-c3cc(CNC(=O)C(C)(C)C(F)(F)F)ccc3Cl)n2)c1 [Example 1-92] | 0.5 nM

More lines, now with the values ahead:

IC50 | Compound
0.6 nM | CCCc1ccc(-c2nc(O)nc(-c3cc(CNC(=O)C(C)(C)C)ccc3Cl)n2)cc1 [Example 1-44]
138 nM | Cc1ccc(CO)cc1-c1nc(O)nc(-c2ccc(C(F)(F)F)cc2)n1 [Example 1-45]
43 nM | CC(=O)NCc1ccc(C)c(-c2nc(O)nc(-c3ccc(C(F)(F)F)cc3)n2)c1 [Example 1-47]
0.9 nM | CC(C)c1cccc(-c2nc(O)nc(-c3cc(CNC(=O)C(C)(C)C)ccc3Cl)n2)c1 [Example 1-49]
0.6 nM | COC(C)(C)C(=O)NCc1ccc(Cl)c(-c2nc(O)nc(-c3ccc(C(F)(F)F)cc3)n2)c1 [Example 1-56]
1 nM | CCOc1cccc(-c2nc(O)nc(-c3cc(CNC(=O)C(C)(C)C)ccc3Cl)n2)c1 [Example 1-62]
0.5 nM | Cc1ccc(-c2nc(O)nc(-c3cc(CNC(=O)C(C)(C)C)ccc3Cl)n2)cc1 [Example 1-63]
1.9 nM | Cc1cccc(-c2nc(O)nc(-c3cc(CNC(=O)C(C)(C)C)ccc3Cl)n2)c1 [Example 1-64]
4.1 nM | O=C(NCc1ccc(Cl)c(-c2nc(O)nc(-c3ccccc3)n2)c1)C1CCC1 [Example 1-66]
1 nM | O=C(NCc1ccc(Cl)c(-c2nc(O)nc(-c3ccccc3)n2)c1)C1CCCC1 [Example 1-67]
0.6 nM | CC(C)(C)C(=O)NCc1ccc(Cl)c(-c2nc(O)nc(-c3ccc(F)cc3)n2)c1 [Example 1-74]
6.7 nM | COCc1cccc(-c2nc(O)nc(-c3cc(CNC(=O)C(C)(C)C)ccc3Cl)n2)c1 [Example 1-75]
0.9 nM | CC(C)(C(=O)NCc1ccc(Cl)c(-c2nc(O)nc(-c3cccc(OC(F)(F)F)c3)n2)c1)C(F)(F)F [Example 1-77]
2.2 nM | O=C(NCc1ccc(Cl)c(-c2nc(O)nc(-c3cccc(OC(F)(F)F)c3)n2)c1)C1(C(F)(F)F)CCCC1 [Example 1-78]
3.1 nM | CC(C)(C)c1cccc(-c2nc(O)nc(-c3cc(CNC(=O)C4(C(F)(F)F)CCCC4)ccc3Cl)n2)c1 [Example 1-80]
0.8 nM | CC(C)Oc1ccc(-c2nc(O)nc(-c3cc(CNC(=O)C(C)(C)C)ccc3Cl)n2)cc1 [Example 1-82]
11 nM | CC(C)OC(=O)NCc1ccc(Cl)c(-c2nc(O)nc(-c3cccc(C(C)(C)C)c3)n2)c1 [Example 1-83]
0.8 nM | CO[C@](C)(C(=O)NCc1ccc(Cl)c(-c2nc(O)nc(-c3ccccc3)n2)c1)C(F)(F)F [Example 1-87]
0.9 nM | CO[C@@](C)(C(=O)NCc1ccc(Cl)c(-c2nc(O)nc(-c3ccccc3)n2)c1)C(F)(F)F [Example 1-89]
0.4 nM | CC(C)Oc1cccc(-c2nc(O)nc(-c3cc(CNC(=O)C(C)(C)C(F)(F)F)ccc3Cl)n2)c1 [Example 1-91]
0.7 nM | Cc1cc(C)cc(-c2nc(O)nc(-c3cc(CNC(=O)C(C)(C)C(F)(F)F)ccc3Cl)n2)c1 [Example 1-93]
4.6 nM | CC(C)(C)c1cccc(-c2nc(O)nc(-c3cc(CNC(=O)c4ccccc4)ccc3Cl)n2)c1 [Example 1-94]
2.1 nM | CC(C)Cc1cccc(-c2nc(O)nc(-c3cc(CNC(=O)C(C)(C)C(F)(F)F)ccc3Cl)n2)c1 [Example 1-95]
81 nM | CCO[C@](C)(C(=O)NCc1ccc(Cl)c(-c2nc(O)nc(-c3ccccc3)n2)c1)C(F)(F)F [Example 1-96]
